pIC50: −log10 of the molar value. One block for each compound: values may come before it.
Test system: 922993-354-T-J3-PDC complex spheroids, viability
Assay: Anticancer human tumor 922993-354-T-J3-PDC patient-derived endometrial carcinoma cell line growth inhibition [GQUAD]
Conditions: for pIC50: curve of first compound; for viability, T/C: stronger effect = lower value
Source text: DNA G-quadruplex Stabilizer Agents in Combinations in Complex Spheroids
A high-throughput screen of multi-cell type tumor spheroids was designed to identify active combinations of DNA G-quadruplex stabilizer agents and targeted small molecules. Complex spheroids include a stromal component modeled by human endothelial cells (HUVEC) and fibroblasts modeled by human mesenchymal stem cells (MSCs). The concentration ranges selected for each drug and investigational agent were based upon clinically achievable concentrations if the clinical Cmax of the agent was known.
Compounds. The drugs and investigational agents: pidnarulex (CX-5461; NSC782164), APTO-253 (NSC789042), BRACO-19 (NSC847499), peposertib (NSC802822), ceralasertib (NSC780249), elimusertib (NSC800525), camonsertib (NSC841442), AZD-1390 (NSC803789), olaparib (NSC753686), talazoparib (NSC767125), ART-558 (NSC835418), sotorasib (NSC818433), MRTX-1133 (NSC836407), SN-38 (NSC673596), topotecan (NSC609699), etoposide (NSC141540), doxorubicin (NSC123127), gemcitabine (NSC613327), 5-fluorouracil (NSC19893), paclitaxel (NSC125973), vemurafenib (NSC761431), panobinostat (NSC761190), R-306465 (JNJ-16241199; NSC773264), adavosertib (NSC754352), TP-3654 (NSC805149), carboplatin (NSC241240), KSQ-4279 (NSC840948), and staurosporine (NSC755774) were obtained from the National Cancer Institute (NCI) Developmental Therapeutics Program Chemical Repository (34). The FDA-approved anticancer drug set is available from the NCI Developmental Therapeutics Program. […] The stock solutions were prepared in dimethyl sulfoxide (DMSO, Sigma-Aldrich, St. Louis, MO, cat. D2650) at 800-fold the tested concentration and stored at -70 degrees C prior to their use. All drugs and investigational agents were tested over a range starting from a high concentration at or near the clinical Cmax and decreasing in half-log increments. If the clinical Cmax for an agent had not been determined, the highest concentration tested was 10 microM.
2.3 Cell Culture. All cells were maintained in an incubator at 37 degrees C and 5% CO2 with 95% humidity. The PDC lines were cultured according to standard operating procedures established by the NCI PDMR. All PDCs were thawed and cultured in Matrigel-coated flasks prepared with a working solution of 1X Ham's F-12 nutrient mix, without supplementation (Invitrogen, cat. 11765054), 100 U/mL penicillin-streptomycin (Invitrogen, cat. 15140122), and 2.5% Matrigel (Corning Inc., cat. 354248) for the first three passages. The 857933-349-R-J2-PDC line was cultured in 6C/Colon 1B media, which includes advanced DMEM/F-12 (Thermo Fisher Scientific, cat. 12634028), 10 mM HEPES (Thermo Fisher Scientific, cat. 15630080), 1X GlutaMAX supplement (Thermo Fisher Scientific, cat. 35050061), 0.1 mg/mL primocin (InvivoGen, cat. ant-pm-2), 10% defined fetal bovine serum, heat inactivated (HyClone Laboratories Inc., cat. SH30070.03HI), 50% L-WRN conditioned media (ATCC, cat. CRL-3276), 1.25 mM N-Acetyl-L-cysteine (Sigma-Aldrich, cat. A9165), 10 mM nicotinamide (Sigma-Aldrich, cat. N0636), 1X B-27 supplement (Thermo Fisher Scientific, cat. 17504044), 1X N-2 supplement (Thermo Fisher Scientific, cat. 17502048), 10 microM Y-27632 dihydrochloride (Tocris Bioscience, cat. 1254), and 50 ng/mL human EGF recombinant protein (Thermo Fisher Scientific, cat. PHG0311). The 485176-168-R4-J1-PDC line was cultured in Panc media, which includes all 6C/Colon 1B media components plus 100 ng/mL human FGF-10 (Thermo Fisher Scientific, cat. 100-26), 500 nM SB-431542 (Selleckchem, cat. S1067), and gastrin (Tocris, cat. 3006).
[…]

[1] = second compound 0.0316 µM, first compound 0.0316 µM
[2] = second compound 0.0316 µM, first compound 0.1 µM
[3] = second compound 0.0316 µM, first compound 0.316 µM
[4] = second compound 0.0316 µM, first compound 1 µM
[5] = second compound 0.0316 µM, first compound 3.16 µM
[6] = second compound 0.0316 µM, first compound 10 µM
[7] = second compound 0.1 µM, first compound 0.0316 µM
[8] = second compound 0.1 µM, first compound 0.1 µM
[9] = second compound 0.1 µM, first compound 0.316 µM
[10] = second compound 0.1 µM, first compound 1 µM
[11] = second compound 0.1 µM, first compound 3.16 µM
[12] = second compound 0.1 µM, first compound 10 µM
[13] = second compound 0.316 µM, first compound 0.0316 µM
[14] = second compound 0.316 µM, first compound 0.1 µM
[15] = second compound 0.316 µM, first compound 0.316 µM
[16] = second compound 0.316 µM, first compound 1 µM
[17] = second compound 0.316 µM, first compound 3.16 µM
[18] = second compound 0.316 µM, first compound 10 µM
[19] = second compound 1 µM, first compound 0.0316 µM
[20] = second compound 1 µM, first compound 0.1 µM
[21] = second compound 1 µM, first compound 0.316 µM
[22] = second compound 1 µM, first compound 1 µM
[23] = second compound 1 µM, first compound 3.16 µM
[24] = second compound 1 µM, first compound 10 µM
[25] = second compound 3.16 µM, first compound 0.0316 µM
[26] = second compound 3.16 µM, first compound 0.1 µM
[27] = second compound 3.16 µM, first compound 0.316 µM
[28] = second compound 3.16 µM, first compound 1 µM
[29] = second compound 3.16 µM, first compound 3.16 µM
[30] = second compound 3.16 µM, first compound 10 µM
[31] = second compound 10 µM, first compound 0.0316 µM
[32] = second compound 10 µM, first compound 0.1 µM
[33] = second compound 10 µM, first compound 0.316 µM
[34] = second compound 10 µM, first compound 1 µM
[35] = second compound 10 µM, first compound 3.16 µM
[36] = second compound 10 µM, first compound 10 µM
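Also: spheroids exposed to compounds for seven days.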
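For viability, T/C in this document: 100% = DMSO vehicle control viability.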

SMILES: CC(=O)O[C@H]1C(=O)[C@@]2(C)[C@H]([C@H](OC(=O)c3ccccc3)[C@]3(O)C[C@H](OC(=O)[C@H](O)[C@@H](NC(=O)c4ccccc4)c4ccccc4)C(C)=C1C3(C)C)[C@]1(OC(C)=O)CO[C@@H]1C[C@@H]2O + Cc1[nH]c2ccc(F)cc2c1-c1nc2c3cccnc3c3ncccc3c2[nH]1
pIC50 (second compound 0.0316 µM): 5.17
pIC50 (second compound 0.1 µM): < 5.00
pIC50 (second compound 0.316 µM): < 5.00
pIC50 (second compound 1 µM): 5.03
pIC50 (second compound 3.16 µM): 5.09
pIC50 (second compound 10 µM): < 5.00
viability, T/C [1]: 109%
viability, T/C [2]: 84.6%
viability, T/C [3]: 124%
viability, T/C [4]: 115%
viability, T/C [5]: 68.4%
viability, T/C [6]: 40.5%
viability, T/C [7]: 124%
viability, T/C [8]: 87.3%
viability, T/C [9]: 96.6%
viability, T/C [10]: 119%
viability, T/C [11]: 75.7%
viability, T/C [12]: 49.6%
viability, T/C [13]: 98.8%
viability, T/C [14]: 90.4%
viability, T/C [15]: 136%
viability, T/C [16]: 89.2%
viability, T/C [17]: 88.1%
viability, T/C [18]: 50.3%
viability, T/C [19]: 103%
viability, T/C [20]: 126%
viability, T/C [21]: 119%
viability, T/C [22]: 109%
viability, T/C [23]: 81.3%
viability, T/C [24]: 47.8%
viability, T/C [25]: 104%
viability, T/C [26]: 115%
viability, T/C [27]: 124%
viability, T/C [28]: 136%
viability, T/C [29]: 93.6%
viability, T/C [30]: 40.9%
viability, T/C [31]: 97.7%
viability, T/C [32]: 94%
viability, T/C [33]: 117%
viability, T/C [34]: 105%
viability, T/C [35]: 86.2%
viability, T/C [36]: 57.7%

SMILES: Nc1ccn(C2OC(CO)C(O)C2(F)F)c(=O)n1 (stereo not drawn) + Cc1[nH]c2ccc(F)cc2c1-c1nc2c3cccnc3c3ncccc3c2[nH]1
pIC50 (second compound 0.0316 µM): > 7.50
pIC50 (second compound 0.1 µM): > 7.50
pIC50 (second compound 0.316 µM): > 7.50
pIC50 (second compound 1 µM): > 7.50
pIC50 (second compound 3.16 µM): > 7.50
pIC50 (second compound 10 µM): > 7.50
viability, T/C [1]: 25.1%
viability, T/C [2]: 27.1%
viability, T/C [3]: 25.2%
viability, T/C [4]: 18.3%
viability, T/C [5]: 22.5%
viability, T/C [6]: 21.7%
viability, T/C [7]: 25.6%
viability, T/C [8]: 23.2%
viability, T/C [9]: 23.9%
viability, T/C [10]: 21.1%
viability, T/C [11]: 23%
viability, T/C [12]: 22.9%
viability, T/C [13]: 25.1%
viability, T/C [14]: 23.4%
viability, T/C [15]: 24%
viability, T/C [16]: 19.2%
viability, T/C [17]: 22.7%
viability, T/C [18]: 22.1%
viability, T/C [19]: 22.4%
viability, T/C [20]: 25.7%
viability, T/C [21]: 20.1%
viability, T/C [22]: 26.4%
viability, T/C [23]: 24.2%
viability, T/C [24]: 21.7%
viability, T/C [25]: 22.6%
viability, T/C [26]: 29.2%
viability, T/C [27]: 23.3%
viability, T/C [28]: 20.4%
viability, T/C [29]: 27%
viability, T/C [30]: 18.3%
viability, T/C [31]: 27.6%
viability, T/C [32]: 22.3%
viability, T/C [33]: 27%
viability, T/C [34]: 23.4%
viability, T/C [35]: 26.3%
viability, T/C [36]: 26.3%

pIC50 (second compound 0.0316 µM): < 5.00
pIC50 (second compound 0.1 µM): < 5.00
pIC50 (second compound 0.316 µM): 7.05
pIC50 (second compound 1 µM): > 7.50
pIC50 (second compound 3.16 µM): > 7.50
pIC50 (second compound 10 µM): > 7.50
SMILES: C#Cc1c(F)ccc2cc(O)cc(-c3ncc4c(N5CC6CCC(C5)N6)nc(OCC56CCCN5CC(F)C6)nc4c3F)c12 (stereo not drawn) + Cc1cnc(CNC(=O)c2c(=O)c3ccc(N4CCCN(C)CC4)nc3n3c2sc2ccccc23)cn1
viability, T/C [1]: 75.3%
viability, T/C [2]: 81.8%
viability, T/C [3]: 74.4%
viability, T/C [4]: 70%
viability, T/C [5]: 86.9%
viability, T/C [6]: 56.8%
viability, T/C [7]: 64.3%
viability, T/C [8]: 70.2%
viability, T/C [9]: 56%
viability, T/C [10]: 51.6%
viability, T/C [11]: 54%
viability, T/C [12]: 61.1%
viability, T/C [13]: 61.9%
viability, T/C [14]: 51.4%
viability, T/C [15]: 42.5%
viability, T/C [16]: 37%
viability, T/C [17]: 41.2%
viability, T/C [18]: 50.3%
viability, T/C [19]: 42.1%
viability, T/C [20]: 45.2%
viability, T/C [21]: 38.4%
viability, T/C [22]: 36.2%
viability, T/C [23]: 50.2%
viability, T/C [24]: 44.5%
viability, T/C [25]: 46.6%
viability, T/C [26]: 43.8%
viability, T/C [27]: 42.2%
viability, T/C [28]: 44.6%
viability, T/C [29]: 45.9%
viability, T/C [30]: 42.5%
viability, T/C [31]: 40.5%
viability, T/C [32]: 38.7%
viability, T/C [33]: 39.3%
viability, T/C [34]: 44.8%
viability, T/C [35]: 40.3%
viability, T/C [36]: 34.2%

pIC50 (second compound 0.0316 µM): < 5.00
pIC50 (second compound 0.1 µM): < 5.00
pIC50 (second compound 0.316 µM): < 5.00
pIC50 (second compound 1 µM): < 5.00
pIC50 (second compound 3.16 µM): < 5.00
pIC50 (second compound 10 µM): 7.50
SMILES: C=CC(=O)N1CCN(c2nc(=O)n(-c3c(C)ccnc3C(C)C)c3nc(-c4c(O)cccc4F)c(F)cc23)C(C)C1 (stereo not drawn) + Cc1cnc(CNC(=O)c2c(=O)c3ccc(N4CCCN(C)CC4)nc3n3c2sc2ccccc23)cn1
viability, T/C [1]: 109%
viability, T/C [2]: 89.1%
viability, T/C [3]: 79.2%
viability, T/C [4]: 99.5%
viability, T/C [5]: 80.4%
viability, T/C [6]: 100%
viability, T/C [7]: 71.2%
viability, T/C [8]: 73.2%
viability, T/C [9]: 52.8%
viability, T/C [10]: 67%
viability, T/C [11]: 77.2%
viability, T/C [12]: 53.9%
viability, T/C [13]: 49.1%
viability, T/C [14]: 57.5%
viability, T/C [15]: 51.8%
viability, T/C [16]: 53.1%
viability, T/C [17]: 55.1%
viability, T/C [18]: 61.9%
viability, T/C [19]: 55.2%
viability, T/C [20]: 61.1%
viability, T/C [21]: 46.9%
viability, T/C [22]: 47.7%
viability, T/C [23]: 53.8%
viability, T/C [24]: 55.1%
viability, T/C [25]: 53.9%
viability, T/C [26]: 55.9%
viability, T/C [27]: 55.4%
viability, T/C [28]: 51.3%
viability, T/C [29]: 65.7%
viability, T/C [30]: 53.7%
viability, T/C [31]: 52.5%
viability, T/C [32]: 58.1%
viability, T/C [33]: 53.2%
viability, T/C [34]: 46%
viability, T/C [35]: 64%
viability, T/C [36]: 70%

— PubChem BioAssay AID2060489 (Molecular Pharmacology Branch, DTP, NCI, 2025)
